{
  "source": "PubChem BioAssay AID1963964",
  "about": "(Molecular Pharmacology Branch, DTP, NCI, 2024);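 further: spheroids exposed to compounds for seven days before readout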",
  "system": "997726-040-R-J2-PDC tumor spheroids, viability",
  "experiment": "Anticancer human tumor 997726-040-R-J2-PDC patient-derived squamous cell lung carcinoma cell line growth inhibition [PI3K]",
  "settings": "spheroids with HUVEC and MSC; for viability, T/C: stronger effect = lower value",
  "procedure,_shortened": "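We assembled tumor spheroids that included a stromal compartment of HUVEC and MSCs, then exposed them to targeted agents alone and together with PI3K pathway inhibitors. Concentration series descended by half-log from clinically achievable Cmax levels. Viability served as the endpoint.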",
  "data": [
    {"smiles": "CCCS(=O)(=O)Nc1ccc(F)c(C(=O)c2c[nH]c3ncc(-c4ccc(Cl)cc4)cc23)c1F", "note": "+ COc1c(OCCCN2CCOCC2)ccc2c3n(c(=NC(=O)c4cnc(N)nc4)nc12)CCN3", "values": [
      {"measurement": "IC50", "setting": "curve of first compound, second compound 0.00316 µM", "value": 6610, "unit": "nM"},
      {"measurement": "IC50", "setting": "curve of first compound, second compound 0.01 µM", "value": 5360, "unit": "nM"},
      {"measurement": "IC50", "setting": "curve of first compound, second compound 0.0316 µM", "value": 31.6, "unit": "nM"},
      {"measurement": "IC50", "setting": "curve of first compound, second compound 0.1 µM", "value": "< 31.6", "unit": "nM"},
      {"measurement": "IC50", "setting": "curve of first compound, second compound 0.316 µM", "value": "< 31.6", "unit": "nM"},
      {"measurement": "IC50", "setting": "curve of first compound, second compound 1 µM", "value": "< 31.6", "unit": "nM"},
      {"measurement": "viability, T/C", "setting": "second compound 0.00316 µM, first compound 0.0316 µM", "value": 68.1, "unit": "%"},
      {"measurement": "viability, T/C", "setting": "second compound 0.00316 µM, first compound 0.1 µM", "value": 91.1, "unit": "%"},
      {"measurement": "viability, T/C", "setting": "second compound 0.00316 µM, first compound 0.316 µM", "value": 101, "unit": "%"},
      {"measurement": "viability, T/C", "setting": "second compound 0.00316 µM, first compound 1 µM", "value": 114, "unit": "%"},
      {"measurement": "viability, T/C", "setting": "second compound 0.00316 µM, first compound 3.16 µM", "value": 136, "unit": "%"},
      {"measurement": "viability, T/C", "setting": "second compound 0.00316 µM, first compound 10 µM", "value": 20.7, "unit": "%"},
      {"measurement": "viability, T/C", "setting": "second compound 0.01 µM, first compound 0.0316 µM", "value": 52.6, "unit": "%"},
      {"measurement": "viability, T/C", "setting": "second compound 0.01 µM, first compound 0.1 µM", "value": 70.3, "unit": "%"},
      {"measurement": "viability, T/C", "setting": "second compound 0.01 µM, first compound 0.316 µM", "value": 69.6, "unit": "%"},
      {"measurement": "viability, T/C", "setting": "second compound 0.01 µM, first compound 1 µM", "value": 76, "unit": "%"},
      {"measurement": "viability, T/C", "setting": "second compound 0.01 µM, first compound 3.16 µM", "value": 94, "unit": "%"},
      {"measurement": "viability, T/C", "setting": "second compound 0.01 µM, first compound 10 µM", "value": 23.2, "unit": "%"},
      {"measurement": "viability, T/C", "setting": "second compound 0.0316 µM, first compound 0.0316 µM", "value": 39.5, "unit": "%"},
      {"measurement": "viability, T/C", "setting": "second compound 0.0316 µM, first compound 0.1 µM", "value": 41.8, "unit": "%"},
      {"measurement": "viability, T/C", "setting": "second compound 0.0316 µM, first compound 0.316 µM", "value": 44.2, "unit": "%"},
      {"measurement": "viability, T/C", "setting": "second compound 0.0316 µM, first compound 1 µM", "value": 49.9, "unit": "%"},
      {"measurement": "viability, T/C", "setting": "second compound 0.0316 µM, first compound 3.16 µM", "value": 57.1, "unit": "%"},
      {"measurement": "viability, T/C", "setting": "second compound 0.0316 µM, first compound 10 µM", "value": 19.6, "unit": "%"},
      {"measurement": "viability, T/C", "setting": "second compound 0.1 µM, first compound 0.0316 µM", "value": 24, "unit": "%"},
      {"measurement": "viability, T/C", "setting": "second compound 0.1 µM, first compound 0.1 µM", "value": 24.6, "unit": "%"},
      {"measurement": "viability, T/C", "setting": "second compound 0.1 µM, first compound 0.316 µM", "value": 25.3, "unit": "%"},
      {"measurement": "viability, T/C", "setting": "second compound 0.1 µM, first compound 1 µM", "value": 28.4, "unit": "%"},
      {"measurement": "viability, T/C", "setting": "second compound 0.1 µM, first compound 3.16 µM", "value": 28, "unit": "%"},
      {"measurement": "viability, T/C", "setting": "second compound 0.1 µM, first compound 10 µM", "value": 16.5, "unit": "%"},
      {"measurement": "viability, T/C", "setting": "second compound 0.316 µM, first compound 0.0316 µM", "value": 5.93, "unit": "%"},
      {"measurement": "viability, T/C", "setting": "second compound 0.316 µM, first compound 0.1 µM", "value": 6.12, "unit": "%"},
      {"measurement": "viability, T/C", "setting": "second compound 0.316 µM, first compound 0.316 µM", "value": 5.74, "unit": "%"},
      {"measurement": "viability, T/C", "setting": "second compound 0.316 µM, first compound 1 µM", "value": 7.01, "unit": "%"},
      {"measurement": "viability, T/C", "setting": "second compound 0.316 µM, first compound 3.16 µM", "value": 8.12, "unit": "%"},
      {"measurement": "viability, T/C", "setting": "second compound 0.316 µM, first compound 10 µM", "value": 7.64, "unit": "%"},
      {"measurement": "viability, T/C", "setting": "second compound 1 µM, first compound 0.0316 µM", "value": 1.54, "unit": "%"},
      {"measurement": "viability, T/C", "setting": "second compound 1 µM, first compound 0.1 µM", "value": 1.08, "unit": "%"},
      {"measurement": "viability, T/C", "setting": "second compound 1 µM, first compound 0.316 µM", "value": 1.77, "unit": "%"},
      {"measurement": "viability, T/C", "setting": "second compound 1 µM, first compound 1 µM", "value": 1.68, "unit": "%"},
      {"measurement": "viability, T/C", "setting": "second compound 1 µM, first compound 3.16 µM", "value": 2.43, "unit": "%"},
      {"measurement": "viability, T/C", "setting": "second compound 1 µM, first compound 10 µM", "value": 1.82, "unit": "%"}
    ]},
    {"smiles": "CC(C)n1nc(-c2ccc3oc(N)nc3c2)c2c(N)ncnc21", "values": [
      {"measurement": "viability, T/C", "setting": "compound 0.000316 µM", "value": "91.5% [middle of 4 runs]"},
      {"measurement": "viability, T/C", "setting": "compound 0.001 µM", "value": "85% [middle of 4 runs]"},
      {"measurement": "viability, T/C", "setting": "compound 0.00316 µM", "value": "87.5% [middle of 4 runs]"},
      {"measurement": "viability, T/C", "setting": "compound 0.01 µM", "value": "68% [middle of 4 runs]"},
      {"measurement": "viability, T/C", "setting": "compound 0.0316 µM", "value": "50.7% [middle of 4 runs]"},
      {"measurement": "viability, T/C", "setting": "compound 0.1 µM", "value": "14.7% [middle of 4 runs]"},
      {"measurement": "IC50", "setting": "curve of compound", "value": "28.8 nM [middle of 4 runs]"}
    ]}
  ]
}
